Test results as given in EP4028131B1, “HETEROAROMATIC COMPOUNDS USEFUL IN THERAPY” (CUROVIR AB, priority 2019, dated 2021).

Tests used:
[1] = tested on: RSV strain A2; test: standard plaque reduction assay for anti-RSV activity; settings: for SI (CC50/IC50): calculated selectivity index, HEp-2 cells; for IC50: human respiratory syncytial virus, HEp-2, read-out: IC50 (RSV)
[2] = cell viability assay using tetrazolium salt (MTS); settings: human
Procedure: The cell viability assay using tetrazolium salt (MTS) was also performed in HEp-2 cells.

[3] = tested on: RSV; test: plaque titration assay of extracellular and cell-associated virus yield; type: cell-based; settings: HEp-2 cells, MOI of 3, compound at 0.2 µM
Procedure: The titer of extracellular (EX) and cell-associated (CA) RSV after incubation in Hep-2 cells at a multiplicity of infection (MOI) of 3 was determined by a plaque titration assay. Infected cells were harvested by scraping into fresh supernatant medium and then subjected to a rapid freeze-thaw cycle at -80 °C ethanol and a 37 °C water bath, respectively, to release infectious virus.

[4] = tested on: RSV; test: time-of-addition study of antiviral effect; type: cell-based; settings: HEp-2 cells, compound at 0.2 µM added from -1h to 6h relative to infection
Procedure: A time-of-addition study was performed using the compounds of Examples 25 and 61.

With COc1ccc(-c2c(C)nn3c(NCc4ccc(C)nc4)cc(C)nc23)cc1OC [Example 29, 3-(3,4-dimethoxyphenyl)-2,5-dimethyl-N-[(6-methyl-3-pyridyl)methyl]pyrazolo[1,5-a]pyrimidin-7-amine] the “SI (CC50/IC50)” value [1] was 150, the IC50 [1] was 0.04 µM and the CC50 ([2]; HEp-2 cells) was 60 µM.
For Cc1cc(NCc2ccncc2)n2nc(C)c(-c3ccc4c(c3)c(C)nn4C)c2n1 [Example 68, 3-(1,3-dimethyl-1H-indazol-5-yl)-2,5-dimethyl-N-(pyridin-4-ylmethyl)pyrazolo[1,5-a]pyrimidin-7-amine], the “SI (CC50/IC50)” value [1] was 1000, the IC50 [1] was 0.04 µM and the CC50 [2] was 40 µM.
With Cc1cc(CCCOc2c(C)cc(-c3noc(C(F)(F)F)n3)cc2C)on1 [Pleconaril, reference compound] the “SI (CC50/IC50)” value [1] was 38, the IC50 [1] was 8 µM and the CC50 [2] was 300 µM.
For COc1ccc(-c2c(C)nn3c(NCc4ccc(S(N)(=O)=O)cc4)nc(C)nc23)cc1OC [Example 45, 4-[[[8-(3,4-dimethoxyphenyl)-2,7-dimethylpyrazolo[1,5-a][1,3,5]triazin-4-yl]amino]methyl]benzenesulfonamide], the “SI (CC50/IC50)” value [1] was >7143, the IC50 [1] was 0.07 µM and the CC50 [2] was > 500 µM.
In the case of Cc1cc(NCc2ccncc2)c2nc(C)c(-c3ccc4c(c3)c(C)nn4C)n2n1 [Example 61, 3-(1,3-dimethyl-1H-indazol-5-yl)-2,6-dimethyl-N-(pyridin-4-ylmethyl)imidazo[1,2-b]pyridazin-8-amine], the “SI (CC50/IC50)” value [1] is reported as 514, the IC50 [1] is reported as 0.034 µM and the CC50 [2] is reported as 18 µM. The “inhibition of cell-associated (CA) RSV yield” value [3] was “approximately 1 log10”, the “inhibition of extracellular (EX) RSV yield” value [3] was “approximately 1 log10” and the “time dependency of inhibition of RSV yield” value [4] was “time-independent inhibition of RSV yield”.
Work on CC(=O)Nc1nc(C)c(-c2ccc(Cl)c(S(=O)(=O)NCCO)c2)s1 [PIK-93, reference compound] yielded an IC50 [1] of 0.4 µM.
For Cc1cc(CNc2cc(C)nc3c(-c4ccc5c(c4)c(C)nn5C)c(C)nn23)ccn1 [Example 5, 3-(1,3-dimethyl-1H-indazol-5-yl)-2,5-dimethyl-N-[(2-methylpyridin-4-yl)methyl]pyrazolo[1,5-a]pyrimidin-7-amine], the “SI (CC50/IC50)” value [1] was 450, the IC50 [1] was 0.04 µM and the CC50 [2] was 18 µM.
In the case of COc1ccc(-c2c(C)nn3c(NCc4cccc(S(C)(=O)=O)c4)cc(C)nc23)cc1OC [Example 25, 3-(3,4-dimethoxyphenyl)-2,5-dimethyl-N-[(3-methylsulfonylphenyl)methyl]pyrazolo[1,5-a]pyrimidin-7-amine], the “SI (CC50/IC50)” value [1] is reported as >25000, the IC50 [1] is reported as 0.02 µM and the CC50 [2] is reported as > 500 µM. For the same molecule, the “inhibition of cell-associated (CA) RSV yield” value [3] was “approximately 1 log10”, the “inhibition of extracellular (EX) RSV yield” value [3] was “approximately 1 log10” and the “time dependency of inhibition of RSV yield” value [4] was “time-independent inhibition of RSV yield”.
For CCc1cc(CNc2cc(C)nc3c(-c4ccc5c(c4)c(C)nn5C)c(C)nn23)ccn1 [Example 6, 3-(1,3-dimethyl-1H-indazol-5-yl)-2,5-dimethyl-N-[(2-ethylpyridin-4-yl)methyl]pyrazolo[1,5-a]pyrimidin-7-amine], the “SI (CC50/IC50)” value [1] was 3200, the IC50 [1] was 0.05 µM and the CC50 [2] was 160 µM.
In the case of COc1ccc(-c2c(C)nc3c(NCc4ccncc4)cc(C)nn23)cc1OC [Example 1, 3-(3,4-dimethoxyphenyl)-2,6-dimethyl-N-(pyridin-4-ylmethyl)imidazo[1,2-b]pyridazin-8-amine], the “SI (CC50/IC50)” value [1] is reported as 2000, the IC50 [1] is reported as 0.03 µM and the CC50 [2] is reported as 60 µM.
With COc1ccc(-c2c(C)nn3c(NCc4ccncc4)nc(C)nc23)cc1OC [Example 38, 8-(3,4-dimethoxyphenyl)-2,7-dimethyl-N-(4-pyridylmethyl)pyrazolo[1,5-a][1,3,5]triazin-4-amine] the “SI (CC50/IC50)” value [1] was 667, the IC50 [1] was 0.09 µM and the CC50 [2] was 60 µM.
